Reference: ChEMBL document CHEMBL3525920, “CYP4F enzymes are responsible for the elimination of fingolimod (FTY720), a novel treatment of relapsing multiple sclerosis” (Drug Metab Dispos, 2011)

What was measured:
Type in all cases: ADME
Liver microsome [1] = test: Drug metabolism in human liver microsomes assessed as metabolite formation at 50 uM treated 15 mins after antibody addition measured after 20 mins by HPLC-RA analysis in presence of CYP3A4-specific monoclonal antibody
Cytochrome P450 4A11 = Cytochrome P450 4A11 (Homo sapiens, UniProt Q02928); test: Activity at human recombinant CYP4A11 expressed in baculovirus-infected BTI-TN-5B1-4 insect cell microsomes assessed as metabolite formation at 5 to 100 uM after 30 mins by HPLC-RA analysis; settings: bti-tn-5b1-4, 0.5 h
Chain of Cytochrome P450 4A11 (Q02928 whole entry): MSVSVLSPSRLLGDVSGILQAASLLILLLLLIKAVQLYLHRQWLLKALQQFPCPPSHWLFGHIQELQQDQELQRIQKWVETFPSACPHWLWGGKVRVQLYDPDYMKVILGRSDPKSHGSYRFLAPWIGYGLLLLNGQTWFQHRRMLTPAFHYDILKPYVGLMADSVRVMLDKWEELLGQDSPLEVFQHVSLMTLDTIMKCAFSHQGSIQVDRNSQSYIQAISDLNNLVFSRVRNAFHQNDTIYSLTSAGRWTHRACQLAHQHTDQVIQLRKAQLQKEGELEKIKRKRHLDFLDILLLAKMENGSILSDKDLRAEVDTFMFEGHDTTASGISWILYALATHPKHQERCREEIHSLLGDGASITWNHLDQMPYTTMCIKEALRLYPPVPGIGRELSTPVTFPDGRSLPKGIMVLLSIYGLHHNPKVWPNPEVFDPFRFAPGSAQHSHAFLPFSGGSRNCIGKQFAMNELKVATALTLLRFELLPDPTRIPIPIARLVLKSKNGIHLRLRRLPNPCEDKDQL

Liver microsome [2] = test: Drug metabolism in human liver microsomes assessed as metabolite formation at 50 uM treated 15 mins after antibody addition measured after 20 mins by HPLC-RA analysis in presence of CYP2D6-specific monoclonal antibody
[3] = Activity at CYP4F in human liver microsomes assessed as metabolite formation after 15 mins by Eadie-Hofstee plot analysis; settings: 0.25 h
Cytochrome P450 2C9 = Cytochrome P450 2C9 (Homo sapiens, UniProt P11712); test: Activity at human recombinant CYP2C9 expressed in baculovirus-infected BTI-TN-5B1-4 insect cell microsomes assessed as metabolite formation at 5 to 100 uM after 30 mins by HPLC-RA analysis; settings: bti-tn-5b1-4, 0.5 h
Chain of Cytochrome P450 2C9 (P11712 whole entry): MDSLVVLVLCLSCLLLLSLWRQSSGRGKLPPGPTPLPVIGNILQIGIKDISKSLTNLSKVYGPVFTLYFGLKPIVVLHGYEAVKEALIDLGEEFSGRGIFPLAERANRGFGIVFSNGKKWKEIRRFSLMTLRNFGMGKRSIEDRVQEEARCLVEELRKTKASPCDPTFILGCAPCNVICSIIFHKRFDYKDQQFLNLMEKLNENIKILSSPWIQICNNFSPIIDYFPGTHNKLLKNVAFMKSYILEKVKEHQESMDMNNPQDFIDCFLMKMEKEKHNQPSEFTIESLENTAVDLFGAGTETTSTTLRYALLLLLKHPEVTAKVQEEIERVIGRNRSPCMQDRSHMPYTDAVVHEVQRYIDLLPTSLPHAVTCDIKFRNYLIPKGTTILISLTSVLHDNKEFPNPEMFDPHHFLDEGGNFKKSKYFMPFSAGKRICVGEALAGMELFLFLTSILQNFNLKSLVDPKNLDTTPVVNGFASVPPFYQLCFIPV

Question: With `CCCCCCCCc1ccc(CC[14C](N)(CO)CO)cc1.Cl` as the compound, how does the Drug metabolism (Liver microsome [1]) read?
Answer: metabolite_detected

Question: And the Drug metabolism (Cytochrome P450 4A11)?
Answer: metabolite_not_detected

Question: And the Drug metabolism (Liver microsome [2])?
Answer: metabolite_detected

Question: And the Km [3]?
Answer: 183 µM

Question: And the Drug metabolism (Cytochrome P450 2C9)?
Answer: metabolite_not_detected
